Test results: patent US20090053152A1, “SKIN COSMETIC” (KAO Corporation, priority 2006, published 2009)
Values after ≈ are worked out from the molar mass of the structure shown. Where two headings read alike, the source gives them in different places.

How the values were obtained:
[1] = Solubility test in water or organic solvent; type: physicochemical; details: room temperature, visually observed; for Solubility in Ethyl acetate: 0.1 g sample in 1 ml ethyl acetate; for solubility: thermodynamic from solid
Method: 0.1 g of each sample was weighed and 1 ml of water or an organic solvent was accurately added thereto. After agitating the mixture with a test tube mixer (VORTEX), it was allowed to stand at room temperature and the state was visually observed. Solubility was evaluated as “o”, when a sample was completely dissolved. Solubility was evaluated as “Δ”, when a sample was approximately half dissolved. Solubility was evaluated as “x”, when a sample was almost not dissolved. Propylbiphenol that was a starting material for each Preparation Example was also evaluated as Comparative Example 1.

B16 melanoma cells = test: Melanogenesis inhibition test; type: cell-based; details: for IC50: Mus musculus; for Melanogenesis inhibition rate (%, vs control): 72 hours culture, melanin per protein
Method: B16 melanoma cells were plated at 10^4 cells/well in a MEM medium containing 10 vol % fetal bovine serum in a 12-well plate and were precultured for 24 hours. After the preculture, the medium was replaced with a medium obtained by adding a predetermined concentration of the sample compound to the above medium to which is added 2 mmol/L of theophylline, and culture was carried out for 72 hours. […] Further, the cells were dissolved in a 1 mol/L aqueous sodium hydroxide solution containing 10 vol % dimethyl sulfoxide. The OD475 was measured and the value was used as an indicator of the amount of melanin. Thereafter, the amount of total protein in the solution was determined using Coomasie Plus Protein Assay Reagent Kit (manufactured by PIERCE) to calculate the amount of melanin per amount of protein. The melanogenesis inhibition rate (%) relative to a control was determined with a case where the sample compound was not added as the control.
Melanogenesis inhibition curves of the monoacetyl and diacetyl derivatives of propylbiphenol of Preparation Example 1 according to the present invention were made based on the results of the melanogenesis inhibition test (FIGS. 6 and 7). IC50 values, which is the concentration values supposed to inhibit 50% of melanogenesis, were determined from the inhibition curves.

[2] = 0.1 g sample in 1 ml water, read-out: Solubility in Water
[3] = B16, determined from melanogenesis inhibition curves, read-out: IC50 value (concentration supposed to inhibit 50% of melanogenesis)
[4] = addition concentration 10 μg/ml

Row | Compound | Solubility in Ethyl acetate [1] | Solubility in Methanol ([1]; 0.1 g sample in 1 ml methanol) | Solubility in n-hexane ([1]; 0.1 g sample in 1 ml n-hexane) | solubility [1, 2] | IC50 (B16 melanoma cells; [3]) | Melanogenesis inhibition rate (%, vs control) (B16 melanoma cells; addition concentration 1 μg/ml) | Melanogenesis inhibition rate (%, vs control) (B16 melanoma cells; addition concentration 3 μg/ml) | Melanogenesis inhibition rate (%, vs control) (B16 melanoma cells; [4]) | Melanogenesis inhibition rate (%, vs control) (B16 melanoma cells; addition concentration 30 μg/ml) | solubility ([1]; organic solvent or mixture, 0.1 g sample in 1 ml methanol, read-out: Solubility in Methanol) | solubility ([1]; organic solvent or mixture, 0.1 g sample in 1 ml n-hexane, read-out: Solubility in n-hexane) | IC50 (B16 melanoma cells; B16, read-out: IC50 value (concentration supposed to inhibit 50% of melanogenesis))
1 | CCCc1ccc(OC(C)=O)c(-c2cc(CCC)ccc2OC(C)=O)c1 [Diacetyl derivative] | ∘ | ∘ | ∘ | < 25 mg/mL | 6.5 µg/mL (≈ 0.0183 mM) | −15.5% | −16.6% | 72.0% | 83.8% | – | – | –
2 | CCCc1ccc(O)c(-c2cc(CCC)ccc2OC(C)=O)c1 [Monoacetyl derivative] | ∘ | ∘ | ∘ | < 25 mg/mL | 7 µg/mL (≈ 0.0224 mM) | −11.6% | −9.8% | 100% | – | – | – | –
3 | CCCc1ccc(OC(=O)CC)c(-c2cc(CCC)ccc2OC(=O)CC)c1 [Dipropionyl derivative] | ∘ | ∘ | ∘ | < 25 mg/mL | – | – | – | – | – | – | – | –
4 | CCCCCCCC(=O)Oc1ccc(CCC)cc1-c1cc(CCC)ccc1O [Monooctanoyl derivative] | ∘ | ∘ | ∘ | < 25 mg/mL | – | – | – | – | – | – | – | –
5 | OC[C@H]1O[C@@H](Oc2ccc(O)cc2)[C@H](O)[C@@H](O)[C@@H]1O [arbutin, reference compound] | – | – | – | – | 20 µg/mL (≈ 0.0735 mM) | – | – | – | – | – | – | –
6 | CCCc1ccc(O)c(-c2cc(CCC)ccc2O)c1 [Propylbiphenol, 2,2′-dihydroxy-5,5′-di-n-propyl-biphenyl, reference compound] | ∘ | – | – | < 25 mg/mL | – | – | – | – | – | 25 to 100 mg/mL (≈ 92.5 to 370 mM) | < 25 mg/mL | 4 µg/mL (≈ 0.0148 mM)
